Experimental data as given in PMC9750872, “Ras-mutant cancers are sensitive to small molecule inhibition of V-type ATPases in mice” (Nature biotechnology, 2022).

Legend:
[1] = molecular target: T1, entire mammalian V-ATPase complex (Sus scrofa, UniProt Q9TVC1); assay: Bio-layer interferometry (BLI); assay type: binding, porcine; conditions: biotinylated-249C on streptavidin sensors
T1 construct: the entire V-ATPase complex (800 kDa) was purified as described previously from porcine kidneys; from tissue; host or cells: porcine kidney
Excerpt: (§1) Figure 4. […] (A) Model of the reversible assembly of V-ATPase. Cytosolic V1 subunits are depicted in blue and membrane Vo subunits in purple. Upon V-ATPase assembly, ATP is hydrolyzed to ADP accompanied by proton (H^+) pumping and luminal acidification (decrease in pH) (Created with BioRender). […] The amount of subunit B2 present in the membrane fraction indicates the amount of assembled V-ATPase. A representative Western blot is presented. […] Cells were mechanically lysed, and a fraction containing FITC-Dextran-loaded lysosomes was isolated by sedimentation centrifugation. Fluorescence was measured over time to assess pH-dependent quenching following addition of 1 mM magnesium-ATP (predetermined). […] Representative of 5 individual experiments with n = 3 for each is presented (mean ± SD) (D) Mammalian V-ATPase activity measured in the absence and presence of 1 μM 249C and 1 μM BafA1. Data shown are mean ± SD; n = 3. Bio-layer inferometry (BLI) of (E) the entire mammalian V-ATPase complex (association protein concentrations: 30, 60, 120, 240 nM) and (F) the individual human H subunit (ATP6V1H) (association protein concentrations: 16,800 and 21,000 nM) against biotinylated-249C loaded onto streptavidin sensor tips. A reference sensor was subtracted from the signal to blank the system. The ForteBio Octet® Software on the BLI system was used to calculate Kd s. […]

[2] = molecular target: T2, human H subunit (ATP6V1H) (Homo sapiens, UniProt Q9UI12); assay: Bio-layer interferometry (BLI); assay type: binding; conditions: biotinylated-249C on streptavidin sensors
T2 construct: GST (cleaved yes); host or cells: Rosetta2(DE3)pLysS (E. coli)
Excerpt: as §1

Yeast V-ATPase = molecular target: T3, Yeast V-ATPase (Saccharomyces cerevisiae, UniProt P25515+P41807); assay: Biochemical V-ATPase (ATP hydrolysis) assay
T3 construct: V-ATPase was purified as described previously from yeast[82] using the detergent dodecylmaltoside; endogenous in cells; host or cells: yeast
Protocol: V-ATPase was purified as described previously from yeast[82] using the detergent dodecylmaltoside and porcine kidney[83] using the detergent glycol-diosgenin. ATPase assays with purified V-ATPase were performed as described previously. 249C (mammalian: 0.1, 1, 10, 100 μM and yeast: 5, 10 and 100 μM) or BafA1 (1 μM) were added to the reaction and compared with a negative control to which only DMSO was added. Enzyme-coupled ATPase biochemical activity assays were performed in a 96-well plate as described previously. […]
appears to cause accumulation of high molecular weight entities. Representative of 3 independent experiments. […]
observed. Data shown are mean ± SD ( n = 3) Two-tailed student’s t-test (C) ATP-dependent fluorescence quenching in yeast (me an ± SD; n = 3 ) Two-t ailed student’s t-test (D) SDS PAGE over th e cou rse of recombinant human ATP6V1H protein purification. 1. Mark ers; 2. Total l ysate (GST-fusion […]); 3. Soluble lysate; 4.
GSTrap flow-through; 5. GSTrap elute; 6. Post thrombin cleavage (target 54 kDa, GST 25 kDa); 7. Subtractive GSTrap flow -through; 8. Markers; 9. Final sample, 1 µg protein load. Repres entative of 2 independent ex periments. (E) Structure of biotin- 249C. […]
interfere with V-ATPas e binding. ( F) Experimental schematic of Bio-la yer inferometr y (B L I) .
(1 picture or pasted object on this page, not shown here)

[3] = test system: NSCLC A549 (KRASG12S) xenografts; assay: A549 lung cancer xenograft; assay type: in vivo; conditions: 10 mg/kg twice daily i.p.
Protocol: Finally, to test whether 249C could inhibit autophagy and attenuate the growth of mutant KRAS-dependent cancers as a single agent in vivo, we evaluated 249C in a mouse xenograft model of lung cancer (NSCLC, A549). Briefly, we injected mutant KRAS A549 (G12S) cells into the flanks of athymic mice to establish xenografts, randomly assigned mice to vehicle control (n = 7) or 249C-recipient groups (n = 7, 10 mg/kg) with twice daily i.p. injections, and recorded tumor volume and body weight over time. […] We subsequently sacrificed all mice and excised their tumors for further investigation.
5 × 10^6 A549 cells were subcutaneously injected into the lower left flank of 6–8-week old athymic nude female mice (Charles River strain # 088, homozygous NU/NU). To assess establishment of tumors, mice were examined 5 days post-inoculation and were randomly segregated into two treatment groups [vehicle control, 10 mg/kg 249C IP, n = 7 per group] and were treated twice daily with the drug in NPM or vehicle control (5% weight aqueous solution of carboxymethyl cellulose). Tumor volumes were calculated using the formula (L × W × H)/2 with recorded caliper measurements. Survival curves and statistical analyses were performed using Excel. Animals were maintained on a standard chow diet; 12:12 dark/light cycle and in group housing in hepa-filtered cages. All animal procedures were performed under IACUC approved protocols and guidelines. Animals from both groups were weighed every 3 days. Plasma concentration was measured from blood collected using standard and established protocols.

MEFs KRAS G12V = assay: Cell proliferation of Ras-less MEFs expressing human KRAS/BRAF; conditions: Mus musculus
Protocol: Cell proliferation assays of stable cell lines treated with V-ATPase inhibitors 249C and BafA1, HCQ analog (DC661), KRASG12C inhibitor (AMG510) and autophagy inducer (CMA). For each bar, n = 3. Representative of 3 biological replicates (mean ± SD). Two-sided t-test with no adjustments for multiple comparisons.
Logarithmically growing cells were plated in antibiotic-free medium supplemented with 2% fetal bovine serum at a density of 5,000 cells per well. The next day, cells were treated in triplicates with increasing doses of in-house small molecule inhibitor drugs and a DMSO vehicle control for 3 days and subsequently assessed for cell viability by measurement of ATP with CellTiter-Glo Luminescent Cell Viability Assay (Promega). Signal intensity was read on a Glomax™ 96 Microplate Luminometer (Promega) with GLOMAX software (version 1.9.3) and percent cell survival was calculated based on the reading of vehicle control cells set as 100% using Excel (2012) and GraphPad Prism (version 6)Each compound was tested a minimum of 2 times with n = 3. All cell proliferation assays (cancer cell lines or MEFs) were done in a similar way.

T2 sequence (Q9UI12 whole entry): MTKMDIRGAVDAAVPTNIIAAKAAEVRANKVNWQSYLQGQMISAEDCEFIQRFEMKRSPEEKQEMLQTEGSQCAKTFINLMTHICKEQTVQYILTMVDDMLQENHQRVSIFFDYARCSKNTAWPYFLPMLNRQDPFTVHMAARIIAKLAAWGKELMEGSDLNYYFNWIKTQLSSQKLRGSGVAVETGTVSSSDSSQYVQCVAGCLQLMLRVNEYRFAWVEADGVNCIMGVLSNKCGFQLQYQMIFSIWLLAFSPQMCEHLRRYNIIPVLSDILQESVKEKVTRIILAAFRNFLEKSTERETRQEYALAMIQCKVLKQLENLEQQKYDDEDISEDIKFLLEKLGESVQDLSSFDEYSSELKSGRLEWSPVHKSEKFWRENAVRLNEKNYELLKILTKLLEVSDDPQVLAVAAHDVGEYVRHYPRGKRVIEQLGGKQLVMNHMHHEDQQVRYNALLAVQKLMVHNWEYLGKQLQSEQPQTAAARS
T1 sequence (Q9TVC1 whole entry): as the sequence (Q9UI12 whole entry) above, with A44S, C85S, M100T, R116K, C117R, P124S, P135L, S173A, M309L counted along it
T1 sequence (Q29048 whole entry partner): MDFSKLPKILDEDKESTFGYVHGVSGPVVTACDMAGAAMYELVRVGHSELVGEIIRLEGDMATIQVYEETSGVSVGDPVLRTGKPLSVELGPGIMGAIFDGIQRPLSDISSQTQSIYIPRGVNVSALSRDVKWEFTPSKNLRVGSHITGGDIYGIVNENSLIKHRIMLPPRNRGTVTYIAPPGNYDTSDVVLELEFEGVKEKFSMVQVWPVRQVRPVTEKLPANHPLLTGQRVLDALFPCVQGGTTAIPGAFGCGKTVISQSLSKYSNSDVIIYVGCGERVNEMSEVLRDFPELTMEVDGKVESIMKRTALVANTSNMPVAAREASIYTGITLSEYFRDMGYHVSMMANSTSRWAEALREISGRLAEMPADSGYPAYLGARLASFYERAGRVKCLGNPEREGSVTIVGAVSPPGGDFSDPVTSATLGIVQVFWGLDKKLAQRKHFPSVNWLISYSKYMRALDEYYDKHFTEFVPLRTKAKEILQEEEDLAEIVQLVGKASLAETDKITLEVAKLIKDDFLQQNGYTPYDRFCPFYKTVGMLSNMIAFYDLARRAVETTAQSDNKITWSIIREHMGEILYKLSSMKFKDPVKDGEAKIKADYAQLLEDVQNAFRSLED
T3 sequence (P25515 whole entry): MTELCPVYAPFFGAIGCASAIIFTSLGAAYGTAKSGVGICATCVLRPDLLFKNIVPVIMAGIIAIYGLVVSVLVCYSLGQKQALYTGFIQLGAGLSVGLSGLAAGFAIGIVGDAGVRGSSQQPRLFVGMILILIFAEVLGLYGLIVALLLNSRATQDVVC
T3 sequence (P41807 2-478): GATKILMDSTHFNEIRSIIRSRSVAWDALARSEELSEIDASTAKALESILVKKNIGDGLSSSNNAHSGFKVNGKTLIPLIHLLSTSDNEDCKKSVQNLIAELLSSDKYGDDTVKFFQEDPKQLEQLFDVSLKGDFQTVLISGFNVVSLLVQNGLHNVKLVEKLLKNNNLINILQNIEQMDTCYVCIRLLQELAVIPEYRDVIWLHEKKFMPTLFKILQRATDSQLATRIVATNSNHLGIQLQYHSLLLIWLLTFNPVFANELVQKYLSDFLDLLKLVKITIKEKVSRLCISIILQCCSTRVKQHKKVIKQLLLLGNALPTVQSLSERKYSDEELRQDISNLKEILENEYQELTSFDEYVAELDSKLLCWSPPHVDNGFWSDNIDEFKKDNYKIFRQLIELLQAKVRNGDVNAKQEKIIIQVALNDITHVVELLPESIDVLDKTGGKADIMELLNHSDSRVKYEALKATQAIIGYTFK

CN1CCOC(CNC(=O)C2(C)C(c3ccc(Cl)o3)C(c3ccc(F)cc3F)=NN2c2ccc(F)cc2F)C1 (stereo not shown) [Compound 249C]
Kd [1]: 23 nM | Kd [2]: 501 nM | Yeast V-ATPase activity (Yeast V-ATPase): modest inhibition | tumor volume vs vehicle ([3]; athymic mice): significantly lower | tumor mass vs vehicle ([3]; end point): lower | tissue weight of treated mice vs vehicle ([3]; mice bearing A549 xenografts): No significant difference in tissue weight | IC50 (MEFs KRAS G12V): 150 nM
